BindingDB's records for doi:10.1124/mol.64.6.1283 (Barrow Neurological Institute, 2003)

biological target: Neuronal acetylcholine receptor subunit alpha-4 (Homo sapiens, UniProt P43681)
Sequence (P43681 whole entry): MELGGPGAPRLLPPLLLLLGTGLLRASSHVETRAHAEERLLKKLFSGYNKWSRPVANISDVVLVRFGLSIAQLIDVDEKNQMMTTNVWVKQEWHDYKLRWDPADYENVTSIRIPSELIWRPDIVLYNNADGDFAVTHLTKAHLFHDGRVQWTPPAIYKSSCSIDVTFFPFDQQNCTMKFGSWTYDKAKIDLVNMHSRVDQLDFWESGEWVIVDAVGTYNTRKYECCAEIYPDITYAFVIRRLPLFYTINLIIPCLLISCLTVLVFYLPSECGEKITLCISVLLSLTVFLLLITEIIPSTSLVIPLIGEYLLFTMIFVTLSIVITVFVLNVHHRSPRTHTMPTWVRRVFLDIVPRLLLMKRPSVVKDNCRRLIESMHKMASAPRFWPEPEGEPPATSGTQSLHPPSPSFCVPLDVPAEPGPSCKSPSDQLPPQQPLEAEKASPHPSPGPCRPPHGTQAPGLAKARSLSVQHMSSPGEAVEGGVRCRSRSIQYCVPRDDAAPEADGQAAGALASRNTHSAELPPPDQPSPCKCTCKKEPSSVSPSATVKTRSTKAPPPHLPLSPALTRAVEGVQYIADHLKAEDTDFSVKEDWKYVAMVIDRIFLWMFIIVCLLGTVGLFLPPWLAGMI

Row | SMILES | Ki [µM]
1 | C[N+](C)(C)CCOC(=O)CCCCCCC(=O)OCC[N+](C)(C)C [NSC_123990] | 0.013
2 | COc1cc2c3cc1Oc1cc(ccc1O)C[C@H]1c4c(cc(OC)c(O)c4Oc4ccc(cc4)C[C@@H]3N(C)CC2)CC[N+]1(C)C [CAS_57-94-3] | 2
3 | CC(=O)OC1CC2CCC3C(CCC4(C)C3CC([N+]3(C)CCCCC3)C4OC(C)=O)C2(C)CC1[N+]1(C)CCCCC1 (centres undefined) [NSC_27350] | > 10
4 | CNC(=O)Oc1ccc2c(c1)C1(C)CCN(C)C1N2C (centres undefined) [1,3a,8-trimethyl-1H,2H,3H,3aH,8H,8aH-pyrrolo[2,3-b]indol-5-yl N-methylcarbamate] | > 10
5 | CC(=O)SCC[N+](C)(C)C [ATC] | 0.17
6 | CC(=O)OC1CC2CCC3C(CCC4(C)C3CC([N+]3(C)CCCCC3)C4OC(C)=O)C2(C)CC1N1CCCCC1 (centres undefined) [CAS_39764] | > 10
7 | C[N+](C)(C)CCCCCC[N+](C)(C)C [Hexamethoniumdibromide] | > 10
8 | C=CC[N+]12CCC34c5ccccc5N5C=C6C7CC8C9(CC[N+]8(CC=C)CC7=CCO)c7ccccc7N(C=C(C(CC31)C(=CCO)C2)C54)C69 (centres undefined) [NSC_5311001] | > 10
9 | C[N+](C)(C)CCOC(N)=O [(2-Hydroxyethyl)trimethyl ammonium chloride carbamate] | 0.15
10 | C[N+](C)(C)CCCCCCCCCC[N+](C)(C)C [Decamethonium Iodide] | 1.3
11 | C[N+](C)(C)CCOC(=O)CCC(=O)OCC[N+](C)(C)C [2,2'-[(1,4-dioxobutane-1,4-diyl)bis(oxy)]bis(N,N,N-trimethylethanaminium)] | 2.9
12 | C[N+]1(C)CCN(c2ccccc2)CC1 [DMPP] | 0.02
13 | CCN1CC2(COC(=O)c3ccccc3-n3c(O)cc(C)c3O)CCC(OC)C34C5CC6C(OC)CC(O)(C5C6OC)C(O)(C(OC)C23)C14 (centres undefined) [CAS_21019-30-7] | 2.8
14 | O=c1cccc2n1CC1CNCC2C1 (centres undefined) [CAS_485-35-8] | 0.00024
